# Measured values taken from patent US8846951B2 (AbbVie Inc., priority 2009, dated 2014).
# Like-named read-outs stand apart in the source and are kept apart here.
# Assays:
# 5HT2B receptors = molecular target: T1, 5HT2B receptors (Homo sapiens, UniProt P41595); test: Human 5-HT2B functional high throughput screening assay in CHO-K1 cells (calcium flux); type: cell-based; settings: for EC50: CHO-K1 cells, calcium flux
# T1 construct: expressed in transfected cells; host or cells: CHO-K1 cells
# Method in brief: (§1)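 FLIPR calcium readout, ex 480/em 530 nm, 25 °C, 3 min post-addition; agonist response normalized to serotonin, 4-parameter fit → EC50, Emax (% serotonin). Cells: frozen CHO-K1 stable lines, serum-free overnight, Ca4 dye + 2.5 mM probenecid, 60 min RT dark.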
# 5HT2C receptors = molecular target: T2, 5HT2C receptors (Homo sapiens, UniProt P28335); test: Human 5-HT2C functional high throughput screening assay in CHO-K1 cells (calcium flux); type: cell-based; parameters: expressed in transfected cells; host or cells: CHO-K1 cells; settings: for Emax: CHO-K1, 5-HT2C, maximum functional response as percentage relative to the effect of serotonin; for EC50: CHO-K1 cells, calcium flux
# T2 sequence (P28335 33-458): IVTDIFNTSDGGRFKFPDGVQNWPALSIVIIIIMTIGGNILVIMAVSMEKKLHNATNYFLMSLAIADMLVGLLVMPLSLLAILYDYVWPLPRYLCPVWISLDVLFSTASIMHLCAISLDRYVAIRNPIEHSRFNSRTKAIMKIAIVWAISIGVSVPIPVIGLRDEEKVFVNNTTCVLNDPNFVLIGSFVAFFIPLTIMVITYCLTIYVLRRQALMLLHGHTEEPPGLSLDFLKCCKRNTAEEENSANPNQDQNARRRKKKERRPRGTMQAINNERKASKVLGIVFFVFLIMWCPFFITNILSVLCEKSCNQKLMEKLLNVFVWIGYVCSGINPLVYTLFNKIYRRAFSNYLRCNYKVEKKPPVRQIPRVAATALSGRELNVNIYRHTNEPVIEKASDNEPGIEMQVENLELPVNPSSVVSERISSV
# Method in brief: as §1
# [1] = 5-HT2B agonist activity, read-out: EC50
# [2] = 5-HT2B, maximum functional response as percentage relative to the effect of serotonin
# [3] = 5-HT2C agonist activity, read-out: EC50
# T1 sequence (P41595 whole entry): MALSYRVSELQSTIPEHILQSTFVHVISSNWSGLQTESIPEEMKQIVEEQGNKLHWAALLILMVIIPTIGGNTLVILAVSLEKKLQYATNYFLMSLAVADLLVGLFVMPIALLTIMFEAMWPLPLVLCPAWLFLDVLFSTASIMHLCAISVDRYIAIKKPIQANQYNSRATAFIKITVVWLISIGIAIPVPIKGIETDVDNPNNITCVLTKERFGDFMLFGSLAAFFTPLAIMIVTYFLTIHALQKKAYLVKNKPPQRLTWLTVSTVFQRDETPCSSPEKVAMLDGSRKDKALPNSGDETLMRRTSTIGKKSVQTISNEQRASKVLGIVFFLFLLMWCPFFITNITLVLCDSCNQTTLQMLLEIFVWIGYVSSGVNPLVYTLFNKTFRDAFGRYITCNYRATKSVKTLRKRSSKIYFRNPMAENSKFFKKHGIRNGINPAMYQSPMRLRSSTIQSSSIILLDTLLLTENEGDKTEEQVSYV
EC50 (5HT2B receptors; [1]) [nM],Emax (5HT2B receptors; [2]),Emax (5HT2C receptors; read-out: Emax) [%],EC50 (5HT2C receptors; [3]) [nM],SMILES,Emax (5HT2C receptors) [%],Emax (5HT2B receptors; CHO-K1) [%],"EC50 (5HT2B receptors; EC50, 5-HT2B agonist activity) [nM]","EC50 (5HT2C receptors; EC50, 5-HT2C agonist activity) [nM]"
> 10000,inactive,> 120,,"COc1cccc(-c2ccc3c(c2)C(=O)NC[C@@H]2CN(C)C[C@@H]32)c1 (relative stereo) [Example 133, Trans-8-(3-methoxyphenyl)-2-methyl-1,2,3,3a,4,5-hexahydrobenzo[e]pyrrolo[3,4-c]azepin-6(10bH)-one]",,,,
> 10000,inactive,110,2000,"O=C1NC[C@@H]2CN(Cc3ccccc3)C[C@H]2c2ccc(-c3nnco3)cc21 (relative stereo) [Example 136, Trans-2-benzyl-8-(1,3,4-oxadiazol-2-yl)-1,2,3,3a,4,5-hexahydrobenzo[e]pyrrolo[3,4-c]azepin-6(10bH)-one]",,,,
> 10000,inactive,> 120,100,"COc1ccccc1-c1ccc2c(c1)C(=O)NC[C@@H]1CN(C)C[C@@H]21 (relative stereo) [Example 137, Trans-8-(2-methoxyphenyl)-2-methyl-1,2,3,3a,4,5-hexahydrobenzo[e]pyrrolo[3,4-c]azepin-6(10bH)-one]",,,,
> 10000,inactive,> 120,100,"CC(C)c1ccc(-c2ccc3c(c2)C(=O)NC[C@@H]2CN(C)C[C@@H]32)cc1 (relative stereo) [Example 138, Trans-8-(4-isopropylphenyl)-2-methyl-1,2,3,3a,4,5-hexahydrobenzo[e]pyrrolo[3,4-c]azepin-6(10bH)-one]",,,,
> 10000,inactive,> 120,30,"CCc1ccc(-c2ccc3c(c2)C(=O)NC[C@@H]2CN(C)C[C@@H]32)cc1 (relative stereo) [Example 139, Trans-8-(4-ethylphenyl)-2-methyl-1,2,3,3a,4,5-hexahydrobenzo[e]pyrrolo[3,4-c]azepin-6(10bH)-one]",,,,
> 10000,inactive,> 120,60,"CN1C[C@H]2CNC(=O)c3cc(-c4ccc(OC(F)(F)F)cc4)ccc3[C@@H]2C1 (relative stereo) [Example 140, Trans-2-methyl-8-(4-(trifluoromethoxy)phenyl)-1,2,3,3a,4,5-hexahydrobenzo[e]pyrrolo[3,4-c]azepin-6(10bH)-one]",,,,
> 10000,inactive,> 120,600,"Nc1ccc2c(c1)C(=O)NC[C@@H]1CN(Cc3ccccc3)C[C@@H]21 (relative stereo) [Example 141, Trans-8-amino-2-benzyl-1,2,3,3a,4,5-hexahydrobenzo[e]pyrrolo[3,4-c]azepin-6(10bH)-one]",,,,
> 10000,inactive,80,2000,"Nc1ccc2c(c1)C(=O)NC[C@@H]1CN(Cc3ccccc3)C[C@H]21 (relative stereo) [Example 142, Cis-8-amino-2-benzyl-1,2,3,3a,4,5-hexahydrobenzo[e]pyrrolo[3,4-c]azepin-6(10bH)-one]",,,,
,,,,"Nc1ccc2c(c1)C(=O)NC[C@@H]1CNC[C@@H]21 (relative stereo) [Example 144, Trans-8-amino-1,2,3,3a,4,5-hexahydrobenzo[e]pyrrolo[3,4-c]azepin-6(10bH)-one]",> 120,60,1000,100
,,,,"O=C1NC[C@@H]2CNC[C@H]2c2ccc(OCc3cccc(F)c3)cc21 (relative stereo) [Example 146, Trans-8-(3-fluorobenzyloxy)-1,2,3,3a,4,5-hexahydrobenzo[e]pyrrolo[3,4-c]azepin-6(10bH)-one]",> 120,15,1000,0.8
> 10000,inactive,> 120,0.9,"O=C1NC[C@@H]2CNC[C@H]2c2ccc(OCc3ccccc3C(F)(F)F)cc21 (relative stereo) [Example 148, Trans-8-(2-(trifluoromethyl)benzyloxy)-1,2,3,3a,4,5-hexahydrobenzo[e]pyrrolo[3,4-c]azepin-6(10bH)-one]",,,,
,,,,"O=C1NC[C@@H]2CNC[C@H]2c2ncccc21 (relative stereo) [Example 153, Trans-7,7a,8,9,10,10a-hexahydropyrido[2,3-e]pyrrolo[3,4-c]azepin-5(6H)-one]",> 120,30,> 10000,80

SMILES,EC50 (5HT2B receptors; [1]) [nM],Emax (5HT2B receptors; [2]),Emax (5HT2C receptors; read-out: Emax) [%],EC50 (5HT2C receptors; [3]) [nM],Emax (5HT2C receptors) [%],Emax (5HT2B receptors; CHO-K1) [%],"EC50 (5HT2B receptors; EC50, 5-HT2B agonist activity) [nM]","EC50 (5HT2C receptors; EC50, 5-HT2C agonist activity) [nM]"
"CC(C)COc1cccc(-c2ccc3c(c2)C(=O)NC[C@@H]2CN(C)C[C@@H]32)c1 (relative stereo) [Example 134, Trans-8-(3-isobutoxyphenyl)-2-methyl-1,2,3,3a,4,5-hexahydrobenzo[e]pyrrolo[3,4-c]azepin-6(10bH)-one]",> 10000,inactive,> 120,60,,,,
"COc1ccc2c(c1)C(=O)NC[C@@H]1CNC[C@H]21 (relative stereo) [Example 135, Cis-8-methoxy-1,2,3,3a,4,5-hexahydrobenzo[e]pyrrolo[3,4-c]azepin-6(10bH)-one]",> 10000,inactive,,800,> 120,,,
"CN1C[C@H]2CNC(=O)c3cc(-c4cccnc4)ccc3[C@@H]2C1 (relative stereo) [Example 143, Trans-2-methyl-8-(pyridin-3-yl)-1,2,3,3a,4,5-hexahydrobenzo[e]pyrrolo[3,4-c]azepin-6(10bH)-one]",> 10000,inactive,,300,> 120,,,
"Nc1ccc2c(c1)C(=O)NC[C@@H]1CNC[C@H]21 (relative stereo) [Example 145, Cis-8-amino-1,2,3,3a,4,5-hexahydrobenzo[e]pyrrolo[3,4-c]azepin-6(10bH)-one]",,inactive,,,15,,> 10000,3000
"O=C1NC[C@@H]2CNC[C@H]2c2ccc(OCc3ccccc3F)cc21 (relative stereo) [Example 147, Trans-8-(2-fluorobenzyloxy)-1,2,3,3a,4,5-hexahydrobenzo[e]pyrrolo[3,4-c]azepin-6(10bH)-one]",,inactive,,,> 120,,> 10000,
"O=C1NC[C@@H]2CN(Cc3ccccc3)C[C@H]2c2ncccc21 (relative stereo) [Example 151, Trans-9-benzyl-7,7a,8,9,10,10a-hexahydropyrido[2,3-e]pyrrolo[3,4-c]azepin-5(6H)-one]",,inactive,,,> 120,,> 10000,70
"O=C1NC[C@@H]2CN(Cc3ccccc3)C[C@H]2c2cnccc21 (relative stereo) [Example 152, Trans-2-benzyl-1,2,3,3a,4,5-hexahydropyrido[3,4-e]pyrrolo[3,4-c]azepin-6(10bH)-one]",> 10000,inactive,,2000,50,,,
"O=C1NC[C@@H]2CN(Cc3ccccc3)C[C@H]2c2cccnc21 (relative stereo) [Example 154, Trans-2-benzyl-1,2,3,3a,4,5-hexahydropyrido[3,2-e]pyrrolo[3,4-c]azepin-6(10bH)-one]",> 10000,inactive,,2000,90,,,
